From paper PMC10377034, “Syntheses of 25-Adamantyl-25-alkyl-2-methylidene-1α,25-dihydroxyvitamin D3 Derivatives with Structure–Function Studies of Antagonistic and Agonistic Active Vitamin D Analogs” (Biomolecules, 2023)
Where two headings read alike, the source gives them in different places.

Key:
[1] = tested on: human dedifferentiated fat (DFAT) cells; test: Osteogenic differentiation assay: ALP activity in human DFAT cells; type: cell-based; details: osteogenic medium, 100 nM, 7 days, natural hormone 1 = 100%
Procedure: Mature adipocytes from the adipose tissue of mammals such as humans and rodents can be dedifferentiated into pluripotent cells using ceiling culture. Dedifferentiated fat (DFAT) cells have potential applications in both regenerative medicine and injury healing, as well as mesenchymal stem cells, embryonic stem cells, and induced pluripotent stem cells. The osteogenic activity of vitamin D derivatives was assessed based on alkaline phosphatase (ALP) activity.
Samples of human subcutaneous adipose tissue were obtained from patients who underwent surgery in the Department of Pediatric Surgery at Nihon University Itabashi Hospital (Tokyo, Japan). The patients gave their written informed consent, and the Ethics Committee of Nihon University School of Medicine approved this study. We prepared dedifferentiated fat (DFAT) cells using the ceiling culture method, as described previously. Briefly, the adipose tissue (approximately 1 g) was cut into small pieces and digested with a 0.1% type I collagenase solution (Koken Co., Ltd., Tokyo, Japan). […] The cells that adhered to the upper surface of the flasks were cultured for conversion to dedifferentiated fat cells. […] Cells at passages 2–4 were used for differentiation experiments.
Cells were grown to confluency in 24-well plates and incubated for a week in DMEM containing 10% FBS, 100 nM dexamethasone (Merk), 10 mM β-glycerophosphate (Merk), and […] L-ascorbic acid-2-phosphate (Merk), with 100 nM of each compound. The induction medium was replaced on day 4. The alkaline phosphatase (ALP) activity in the cell lysates was determined on day 7 with a lab assay ALP kit (Fujifilm wako). The total protein content was determined with the BCA protein assay kit (Thermo Fisher Scientific). ALP levels were normalized to the total protein content.

[2] = tested on: CYP24A1 expression in HEK293 cells; test: CYP24A1 expression (RT-qPCR) in HEK293 cells; details: HEK293 kidney cells, 100 nM, 24 h
Procedure: (§1) HEK293 human kidney cells (RIKEN Cell Bank, Tsukuba, Japan) were cultured in Dulbecco’s modified Eagle’s medium (DMEM) (Fujifilm Wako Pure Chemical Corporation, Tokyo, Japan) containing 5% fetal bovine serum (FBS), 100 U/mL penicillin, and 0.1 mg/mL streptomycin (Nacalai Tesque, Kyoto, Japan). SW480 human colon carcinoma cells (American Type Culture Collection, Manassas, VA) and HaCaT immortalized keratinocyte cells (kindly provided by Dr. Tadashi Terui, Department of Dermatology, Nihon University School of Medicine) were cultured in DMEM containing 10% FBS, 100 U/mL penicillin, and 0.1 mg/mL streptomycin. MG63 human osteosarcoma cells (RIKEN Cell Bank) and lung-derived H292 cells (American Type Culture Collection) were cultured in minimum essential medium containing 10% FBS, 100 U/mL penicillin, and 0.1 mg/mL streptomycin. […] All cells were cultured at 37 °C in a humidified atmosphere containing 5% CO2.
(§2) For gene expression analysis, 1 × 10^4 cells per well were plated in a 24-well plate. After 24 h, the cells were treated with an ethanol control or 100 nM of each test compound for 24 h. […] Real-time PCR was performed on the ABI PRISM 7000 sequence detection system (Thermo Fisher Scientific, Waltham, MA, USA) using Power SYBR Green PCR master mix (Thermo Fisher Scientific).

[3] = tested on: CYP24A1 expression in H292 cells; test: CYP24A1 expression (RT-qPCR) in H292 cells; details: H292 lung cells, 100 nM, 24 h
Procedure: as §1, §2

[4] = tested on: CYP24A1 expression in MG63 cells; test: CYP24A1 expression (RT-qPCR) in MG63 cells; details: MG63 bone cells, 100 nM, 24 h
Procedure: as §1, §2

[5] = molecular target: T1, recombinant hVDR-LBD (Homo sapiens, UniProt P11473); details: relative to 1,25(OH)2D3
T1 sequence (P11473 140-427): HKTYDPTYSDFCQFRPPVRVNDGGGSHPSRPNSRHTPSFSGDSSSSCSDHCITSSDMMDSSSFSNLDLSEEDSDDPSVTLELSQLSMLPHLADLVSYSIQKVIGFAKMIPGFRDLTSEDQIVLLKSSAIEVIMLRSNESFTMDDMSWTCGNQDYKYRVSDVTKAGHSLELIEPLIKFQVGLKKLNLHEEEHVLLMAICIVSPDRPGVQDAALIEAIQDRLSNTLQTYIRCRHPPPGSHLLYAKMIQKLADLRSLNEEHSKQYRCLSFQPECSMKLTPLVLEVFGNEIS
Procedure: (§3) The pGEX-hVDR and pGEX were expressed for a GST-VDR fusion protein and a control GST protein, respectively, in Escherichia coli BL21 (Merck, Darmstadt, Germany). The bacteria were lysed by sonication in a sonication buffer (50 mM Tris-HCl, pH 8.0, 50 mM NaCl, 1 mM EDTA, and 1 mM DTT). The supernatant proteins (1 μg) were diluted in a binding buffer (25 mM Tris, pH 7.5, 100 mM KCl, 25 mM DTT, 4 mM CHAPS, pH 7.5) containing bovine serum albumin (100 μg/mL). A solution containing each test compound in 15 μL of EtOH was added to 570 μL of the GST protein solution in each tube. After being vortexed 2–3 times, the mixture was incubated for 30 min at room temperature. […] After being vortexed 2–3 times, the whole mixture was allowed to stand at 4 °C for 20 h, and 400 μL of dextran-coated charcoal solution (Sigma) was added to remove free ligands.
(§4) All values represent the means, and error bars are the standard deviations derived from triplicate assays.

[6] = tested on: CYP24A1 expression in SW480 cells; test: CYP24A1 expression (RT-qPCR) in SW480 cells; details: SW480 intestine cells, 100 nM, 24 h
Procedure: as §1, §2

[7] = tested on: CYP24A1 expression in HaCaT cells; test: CYP24A1 expression (RT-qPCR) in HaCaT cells; details: HaCaT skin cells, 100 nM, 24 h
Procedure: (§5) SW480 human colon carcinoma cells (American Type Culture Collection, Manassas, VA) and HaCaT immortalized keratinocyte cells (kindly provided by Dr. Tadashi Terui, Department of Dermatology, Nihon University School of Medicine) were cultured in DMEM containing 10% FBS, 100 U/mL penicillin, and 0.1 mg/mL streptomycin. […] All cells were cultured at 37 °C in a humidified atmosphere containing 5% CO2.
(§6) For gene expression analysis, 1 × 10^4 cells per well were plated in a 24-well plate. After 24 h, the cells were treated with an ethanol control or 100 nM of each test compound for 24 h. The total RNAs from the samples were extracted using the acid guanidine thiocyanate phenol/chloroform method [57], and cDNAs were synthesized using the ImProm-II reverse transcription system (Promega, Madison, WI) [43]. Real-time PCR was performed on the ABI PRISM 7000 sequence detection system (Thermo Fisher Scientific, Waltham, MA, USA) using Power SYBR Green PCR master mix (Thermo Fisher Scientific).
(§7) One-way ANOVA followed by Turkey’s multiple comparisons: ※ p < 0.05, ※※ p < 0.01, ※※※ p < 0.001 versus vehicle control.

[8] = molecular target: T2, VDR with NCoR (Homo sapiens, UniProt P11473); test: Mammalian two-hybrid assay, dissociation of NCoR from the VDR
T2 sequence (P11473 1-427): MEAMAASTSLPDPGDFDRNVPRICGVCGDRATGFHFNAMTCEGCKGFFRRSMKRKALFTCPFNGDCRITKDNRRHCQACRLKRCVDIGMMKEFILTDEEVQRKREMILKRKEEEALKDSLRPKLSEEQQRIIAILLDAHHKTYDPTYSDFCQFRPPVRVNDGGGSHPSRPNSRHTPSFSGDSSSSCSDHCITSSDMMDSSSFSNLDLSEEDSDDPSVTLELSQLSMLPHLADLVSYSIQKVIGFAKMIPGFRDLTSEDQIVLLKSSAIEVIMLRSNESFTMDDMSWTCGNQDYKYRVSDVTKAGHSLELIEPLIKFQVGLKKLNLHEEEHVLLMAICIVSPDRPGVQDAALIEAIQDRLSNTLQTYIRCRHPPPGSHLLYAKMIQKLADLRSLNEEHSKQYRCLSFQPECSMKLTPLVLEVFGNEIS
Procedure: (§8) We used the expression plasmids pCMX-VDR, pCMX-VP16- VDR, pCMX-GAL4-RXRα, pCMX-GAL4-SRC-1, and pCMX-GAL4- N-CoR, as reported previously [43]. […] We used luciferase reporters: VDR-responsive Sppx3-tk-LUC and GAL4-responsive MH100(UAS) × 4-tk-LUC reporters [43].
(§9) Transfections of 50 ng of TK-Spp × 3-LUC reporter plasmid, 10 ng of pCMX-β-galactosidase, and 15 ng of pCMX-VDR for each well of a 96-well plate were performed in HEK293 cells using the calcium phosphate coprecipitation method, as described previously [43]. The mammalian two-hybrid assay for cofactor interaction with VDR used 50 ng of TK-MH100(UAS) × 3- LUC reporter plasmid, 10 ng of pCMX-β-galactosidase, 15 ng of pCMX-GAL4-RXRα, pCMX-GAL4-SRC1, or pCMX-GAL4-NCoR, and 15 ng of pCMX-VP16-VDR for each well of a 96-well plate. Luciferase and β-galactosidase activities were measured with a luminometer and a microplate reader (Molecular Devices, Sun Jose, CA, USA), respectively. Luciferase values were normalized to the internal β-galactosidase control.
(§10) (B) Effects on the interactions between the VDR and SRC-1. HEK293 cells were co-transfected with CMX-GAL4-SRC-1, CMX-VP16-VDR, and MH100 (UAS) × 4-tk-LUC and were treated with each compound over a range of concentrations. (C) Effects on interactions of the VDR with NCoR-1. HEK293 cells were co-transfected with CMX-GAL4-N-CoR in combination with CMX-VP16-VDR and MH100 (UAS) × 4-tk-LUC and were treated with each compound over a range of concentrations.

[9] = molecular target: T3, VDR with RXRα (Homo sapiens, UniProt P11473); test: Mammalian two-hybrid assay, interaction of the VDR with RXRα
T3 sequence (P11473 1-427): T2 sequence (P11473 1-427)
T3 sequence (P19793 1-462 partner): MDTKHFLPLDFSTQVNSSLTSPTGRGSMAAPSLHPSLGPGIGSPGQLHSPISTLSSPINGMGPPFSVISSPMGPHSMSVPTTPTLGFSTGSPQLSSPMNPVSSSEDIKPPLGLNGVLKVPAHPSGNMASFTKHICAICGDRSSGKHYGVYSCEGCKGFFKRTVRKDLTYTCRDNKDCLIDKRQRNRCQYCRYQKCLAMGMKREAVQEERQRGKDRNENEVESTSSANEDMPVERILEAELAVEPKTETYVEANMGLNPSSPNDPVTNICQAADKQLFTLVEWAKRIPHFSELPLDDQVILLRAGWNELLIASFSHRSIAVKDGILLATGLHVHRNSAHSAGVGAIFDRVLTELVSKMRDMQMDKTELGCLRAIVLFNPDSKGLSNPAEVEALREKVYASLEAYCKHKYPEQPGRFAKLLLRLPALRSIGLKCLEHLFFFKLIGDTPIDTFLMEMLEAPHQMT
Procedure: as §8, §9, §10

[10] = molecular target: T4, hVDR (Homo sapiens, UniProt P11473); test: VDR transactivation luciferase reporter assay in HEK293 cells (SPP×3-tk-LUC); type: cell-based; details: for Transcriptional activity efficacy: 1,25(OH)2D3 = 100%; for Emax / EC50: this study; for Emax: read-out: Transcriptional Activity % Efficacy of That of 1 (converted); for EC50: read-out: Transcriptional Activity EC50
T4 construct: expressed in transfected cells; host or cells: HEK293
T4 sequence (P11473 1-427): T2 sequence (P11473 1-427)
Procedure: The transcriptional activity of the 25-alkylvitamin D analogs on the VDR was evaluated via a luciferase reporter assay in HEK293 human kidney cells transfected with an hVDR expression vector and a luciferase reporter with mouse osteopontin vitamin D response elements (VDREs, SPP×3-tk-LUC).
Transfections of 50 ng of TK-Spp × 3-LUC reporter plasmid, 10 ng of pCMX-β-galactosidase, and 15 ng of pCMX-VDR for each well of a 96-well plate were performed in HEK293 cells using the calcium phosphate coprecipitation method, as described previously. The mammalian two-hybrid assay for cofactor interaction with VDR used 50 ng of TK-MH100(UAS) × 3- LUC reporter plasmid, 10 ng of pCMX-β-galactosidase, 15 ng of pCMX-GAL4-RXRα, pCMX-GAL4-SRC1, or pCMX-GAL4-NCoR, and 15 ng of pCMX-VP16-VDR for each well of a 96-well plate. Luciferase and β-galactosidase activities were measured with a luminometer and a microplate reader (Molecular Devices, Sun Jose, CA, USA), respectively. Luciferase values were normalized to the internal β-galactosidase control.
HEK293 cells were co-transfected with TK-Spp × 3-LUC reporter plasmid and pCMX−VDR, and 8 h after transfection the cells were treated with several concentrations of each compound. After 24 h, the cells were harvested for assaying luciferase and β-galactosidase activity using a luminometer (Molecular Devices, Sunnyvale, CA, USA).

[11] = molecular target: T5, VDR with SRC-1 (Homo sapiens, UniProt P11473); test: Mammalian two-hybrid assay, VDR binding to SRC-1
T5 sequence (P11473 1-427): T2 sequence (P11473 1-427)
T5 sequence (Q15788 595-771 partner limits assumed): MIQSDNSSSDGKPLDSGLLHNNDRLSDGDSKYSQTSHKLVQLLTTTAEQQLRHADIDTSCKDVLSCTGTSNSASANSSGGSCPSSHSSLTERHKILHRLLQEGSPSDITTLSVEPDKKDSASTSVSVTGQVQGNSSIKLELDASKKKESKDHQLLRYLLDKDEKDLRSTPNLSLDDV
Procedure: as §8, §9, §10

[12] = tested on: CYP24A1 expression in U937 cells; test: CYP24A1 expression (RT-qPCR) in U937 cells; details: U937 blood cells, 100 nM, 24 h
Procedure: as §5, §6, §7

[13] = molecular target: T1, recombinant hVDR-LBD; test: biochemical
Procedure: as §3, §4

[14] = tested on: VDR; details: cited from earlier work; for IC50: literature values, read-out: VDR Affinity IC50; for VDR affinity, % of that of 1: relative to 1,25(OH)2D3 (1)
[15] = tested on: VDR; details: literature values, cited from earlier work; for EC50: read-out: Transcriptional Activity EC50
[16] = tested on: VDR; details: antagonist activity for 1; read-out: Antagonistic Activity IC50; cited from earlier work

C=C1/C(=C\C=C2/CCC[C@]3(C)[C@@H]([C@H](C)CCCC(C)(C)O)CC[C@@H]23)C[C@@H](O)C[C@@H]1O [1,25(OH)2D3, 1α,25-dihydroxyvitamin D3]
ALP activity [1]: 100%

C=C1[C@H](O)CC(=C/C=C2\CCC[C@]3(C)[C@@H]([C@H](C)CC#C[C@@](C)(O)C45CC6CC(CC(C6)C4)C5)CC[C@@H]23)C[C@H]1O [ADKM2, (25S)-25-(1-Adamantyl)-1α,25-dihydroxy-2-methylidene-23-yne-19,27-dinorvitamin D3]
CYP24A1 expression relative to natural hormone 1 [2]: 33.2%
CYP24A1 expression relative to natural hormone 1 [3]: 50.1%
CYP24A1 expression relative to natural hormone 1 [4]: 63%
VDR affinity, % of that of 1,25(OH)2D3 [5]: 67%
CYP24A1 expression relative to natural hormone 1 [6]: 42.3%
CYP24A1 expression relative to natural hormone 1 [7]: 85.6%
IC50 [8]: 400 pM
EC50 [9]: 100 pM
ALP activity [1]: 98.8%
Transcriptional activity efficacy [10]: 101%
Emax [10]: 101%
EC50 [10]: 200 pM
EC50 [11]: 600 pM
CYP24A1 expression relative to natural hormone 1 [12]: 77.8%
IC50 [13]: 600 pM

C=C1[C@H](O)CC(=C/C=C2\CCC[C@]3(C)[C@@H]([C@H](C)CC#C[C@](O)(CC)C45CC6CC(CC(C6)C4)C5)CC[C@@H]23)C[C@H]1O [ADKM4, (25S)-25-(1-Adamantyl)-1a,25-dihydroxy-26-methyl-2-methylidene-23-yne-19,27-dinorvitamin D3]
CYP24A1 expression relative to natural hormone 1 [2]: 91.5%
CYP24A1 expression relative to natural hormone 1 [3]: 113%
CYP24A1 expression relative to natural hormone 1 [4]: 73.3%
VDR affinity, % of that of 1,25(OH)2D3 [5]: 27%
CYP24A1 expression relative to natural hormone 1 [6]: 126%
CYP24A1 expression relative to natural hormone 1 [7]: 91.9%
IC50 [8]: 500 pM
EC50 [9]: 1100 pM
ALP activity [1]: 72.6%
Transcriptional activity efficacy [10]: 104%
Emax [10]: 104%
EC50 [10]: 200 pM
EC50 [11]: 1200 pM
CYP24A1 expression relative to natural hormone 1 [12]: 85.1%
IC50 [13]: 1300 pM

C=C1[C@H](O)CC(=C/C=C2\CCC[C@]3(C)[C@@H]([C@@H](C)/C=C/C[C@H](O)CC45CC6CC(CC(C6)C4)C5)CC[C@@H]23)C[C@H]1O [ADMI3, (25S)-26-adamantyl-25-hydroxy-2-methylene-22,23-didehydro-19,27-dinor-20-epi-vitamin D3]
IC50 [14]: 600 pM
VDR affinity, % of that of 1 [14]: 17%
Transcriptional Activity % Efficacy of That of 1 [15]: 10%

C=C1/C(=C\C=C2/CCC[C@]3(C)[C@@H]([C@H](C)CC#C[C@@H](O)C45CC6CC(CC(C6)C4)C5)CC[C@@H]23)C[C@@H](O)C[C@@H]1O [ADOR1, 25 S-sdamantyl-23-yne-26,27-dinor-1α,25-dihydroxyvitamin D(3)]
IC50 [14]: 240 pM
Transcriptional Activity % Efficacy of That of 1 [15]: 87%
EC50 [15]: 30 pM

C=C1/C(=C\C=C2/CCC[C@]3(C)[C@@H]([C@H](C)CC#C[C@H](O)C45CC6CC(CC(C6)C4)C5)CC[C@@H]23)C[C@@H](O)C[C@@H]1O [ADOR2]
IC50 [14]: 600 pM
Transcriptional Activity % Efficacy of That of 1 [15]: > 52%
EC50 [15]: 5700 pM

C=C1[C@H](O)CC(=C/C=C2\CCC[C@]3(C)[C@@H]([C@@H](C)/C=C/C[C@@H](O)C45CC6CC(CC(C6)C4)C5)CC[C@@H]23)C[C@H]1O [ADTT]
IC50 [14]: 130 pM
VDR affinity, % of that of 1 [14]: 67%
IC50 [16]: 3000 pM
Transcriptional Activity % Efficacy of That of 1 [15]: 15%
EC50 [15]: 1000 pM

C=C1C[C@H](C[C@@H](C)[C@H]2CC[C@H]3/C(=C/C=C4/C[C@@H](O)C[C@H](O)C4=C)CCC[C@]23C)OC1=O [TEI-9647, (23S)-25-dehydro-1α-hydroxyvitamin D3-26,23-lactone]
IC50 [14]: 1000 pM
IC50 [16]: 100000 pM
EC50 [15]: 50000 pM

C=C1/C(=C\C=C2/CCC[C@]3(C)[C@@H]([C@H](C)/C=C/[C@@H](O)C4(C(=O)O/C=C\C(=O)OCC)CC4)CC[C@@H]23)C[C@@H](O)C[C@@H]1O [ZK168281]
IC50 [16]: 50000 pM
